Like-named read-outs stand apart in the source and are kept apart here. One block for each molecule: values may come before it.
Assays:
[1] = Sedimentation of inorganic chloride particles of Example 14 after adding organic liquids; assay type: physicochemical
[2] = Stability by top clear layer after 3 days @ 50 C; assay type: physicochemical
Procedure: (§1) Stability was determined by the measurement of the top clear layer after 3 days @ 50° C. Flowability was determined by measuring the elapsed time that it took for 4 grams of the 5 gram sample to flow out of a container with a 0.9 cm opening @ 25° C.

[3] = Flowability by elapsed flow-out time; assay type: physicochemical
Procedure: as §1

[4] = 1% dispersibility in water, 1 gram of sample in 99 grams of water
[5] = test system: West Texas Soil (Estacado Clay Loam); assay: Ammonia generation, N Yield vs N Yield + NH4Cl solutions with urea dropped onto soil sample; details: in the presence of NBPT
[6] = test system: West Texas Soil (Estacado Clay Loam); assay: NH4Cl vs DCD as nitrification inhibitor, ammonia generation from treated urea; details: compared to DCD
[7] = test system: West Texas Soil (Estacado Clay Loam); assay: Ammonia generation from treated urea on soil, headspace NH3 by Draeger am-5000 meter; details: for Measuring Ammonia Generation, Days Ran 3: day 3; for Measuring Ammonia Generation, Days Ran 4: day 4; for Measuring Ammonia Generation, Days Ran 5: day 5; for Measuring Ammonia Generation, Days Ran 6: day 6; for Measuring Ammonia Generation, Days Ran 7: day 7; for Measuring Ammonia Generation, Days Ran 10: day 10; for Measuring Ammonia Generation, Days Ran 11: day 11; for Measuring Ammonia Generation, Days Ran 13: day 13
[8] = 4% organic liquid added to Example 56, top clear layer after 3 days @ 50 C
[9] = 4% organic liquid added to Example 56, time for 4 grams of 5 gram sample to flow out of 0.9 cm opening @ 25 C
[10] = 4% organic liquid added to Example 56
[11] = organic liquid added to Example 56 at a 4% level
[12] = One Month Storage of treated urea
[13] = Two Month Storage of treated urea

Clear layer in inches of a 4 inch sample ([1]; 8 grams added/25 grams of Example 14, within 24 hours of standing): <1 inches | Clear layer in inches of a 4 inch sample ([1]; 25 grams added/25 grams of Example 14, within 24 hours of standing): 1 inches | Clear layer (cm) [2, 8]: 0 cm | seconds (flowability) [3, 9]: 20.3 s | 1% dispersibility in water rating [4, 10]: 4
Molecule: C[S+](C)[O-] [dimethyl sulfoxide]

Clear layer in inches of a 4 inch sample ([1]; 2 grams added/25 grams of Example 14, within 24 hours of standing): 0 inches
Molecule: CC[N+](C)(CC)CC.[Cl-] [triethyl methyl ammonium chloride]

Molecule: butyl carbonate
Clear layer in inches of a 4 inch sample [1]: 0 inches

Molecule: Cl.N [NH4Cl, ammonium chloride]
behaviour in ammonia generation test [5]: performing as a nitrification inhibitor | performance as a nitrification inhibitor [6]: equivalent to DCD

Clear layer (cm) [2, 8]: 0.4 cm | seconds (flowability) [3, 9]: 2.35 s | 1% dispersibility in water rating [4, 10]: 6
Molecule: OCC(O)CO [Glycerin]
effect on Example 56's dispersibility in water [4, 11]: improve Example 56's dispersibility in water significantly

Molecule: CCCCNP(N)(N)=S [NBPT, N-(n-butyl)-thiophosphoric triamide]
Measuring Ammonia Generation, Days Ran 3 ([7]; Initial): 9 ppm | Measuring Ammonia Generation, Days Ran 4 ([7]; Initial): 10 ppm | Measuring Ammonia Generation, Days Ran 5 ([7]; Initial): 4 ppm | Measuring Ammonia Generation, Days Ran 6 ([7]; Initial): 4 ppm | Measuring Ammonia Generation, Days Ran 7 ([7]; Initial): 14 ppm | Measuring Ammonia Generation, Days Ran 10 ([7]; Initial): 97 ppm | Measuring Ammonia Generation, Days Ran 11 ([7]; Initial): 88 ppm | Measuring Ammonia Generation, Total ([7]; Initial, total of days 3-11): 226 ppm | Measuring Ammonia Generation, Days Ran 3 [7, 12]: 111 ppm | Measuring Ammonia Generation, Days Ran 4 [7, 12]: 51 ppm | Measuring Ammonia Generation, Days Ran 5 [7, 12]: 57 ppm | Measuring Ammonia Generation, Days Ran 6 [7, 12]: 98 ppm | Measuring Ammonia Generation, Days Ran 7 [7, 12]: 236 ppm | Measuring Ammonia Generation, Days Ran 10 [7, 12]: 349 ppm | Measuring Ammonia Generation, Days Ran 11 [7, 12]: 251 ppm | Measuring Ammonia Generation, Days Ran 12 ([7]; One Month Storage of treated urea, day 12): 301 ppm | Measuring Ammonia Generation, Days Ran 13 [7, 12]: 153 ppm | Measuring Ammonia Generation, Total ([7]; One Month Storage of treated urea, total of days 3-13): 1607 ppm | Measuring Ammonia Generation, Days Ran 1 ([7]; Two Month Storage of treated urea, day 1): 103 ppm | Measuring Ammonia Generation, Days Ran 5 [7, 13]: 99 ppm | Measuring Ammonia Generation, Days Ran 6 [7, 13]: 32 ppm | Measuring Ammonia Generation, Days Ran 7 [7, 13]: 129 ppm | Measuring Ammonia Generation, Days Ran 8 ([7]; Two Month Storage of treated urea, day 8): 159 ppm | Measuring Ammonia Generation, Days Ran 9 ([7]; Two Month Storage of treated urea, day 9): 130 ppm | Measuring Ammonia Generation, Days Ran 13 [7, 13]: 152 ppm | Measuring Ammonia Generation, Days Ran 14 ([7]; Two Month Storage of treated urea, day 14): 66 ppm | Measuring Ammonia Generation, Days Ran 15 ([7]; Two Month Storage of treated urea, day 15): 49 ppm | Measuring Ammonia Generation, Days Ran 16 ([7]; Two Month Storage of treated urea, day 16): 68 ppm | Measuring Ammonia Generation, Total ([7]; Two Month Storage of treated urea, total): 884 ppm

Clear layer (cm) [2, 8]: 0.45 cm | seconds (flowability) [3, 9]: 2.49 s | 1% dispersibility in water rating [4, 10]: 3
Molecule: CN1CCCC1=O [N-methyl pyrrolidone]

Molecule: CCOP(=O)(OCC)OCC [triethyl phosphate]
Clear layer in inches of a 4 inch sample [1]: 0 inches | Clear layer (cm) [2]: 0.4 cm | seconds (flowability) [3]: 4.03 s | 1% dispersibility in water rating [4]: 6 | effect on Example 56's dispersibility in water [4]: improve Example 56's dispersibility in water significantly

Clear layer (cm) [2, 8]: 0.3 cm | seconds (flowability) [3, 9]: 3.85 s | 1% dispersibility in water rating [4, 10]: 6
Molecule: CC1(C)OCC(CO)O1 (stereo not drawn) [2,2-dimethyl-l,3-dioxolane-4-methanol, 2,2-dimethyl-1,3-dioxolane-4-methanol]
effect on Example 56's dispersibility in water [4, 11]: improve Example 56's dispersibility in water significantly

Reference: patent publication US12098109B2, “Reaction methods for producing nitrogenous phosphoryl compounds that are in situ fluid compositions” (SOILGENIC TECHNOLOGIES, LLC, priority 2021, dated 2024)
